Laboratory results published in ChEMBL document CHEMBL3044778, “Lethal and sublethal effects of buprofezin and imidacloprid on the whitefly parasitoid Encarsia inaron (Hymenoptera: Aphelinidae)” (2012).
Converted amounts (≈) assume the structure as drawn. The source made the active and inactive calls. The calls are words filed in the database; no cut-off is given here.

How the values were obtained:
Encarsia inaron [1] = test: Insecticidal activity against Encarsia inaron treated at larval stages at 62.5 ppm assessed as insects eggs level per day (reference value: 2.98 egg/day); assay type: functional, Larval stage
Encarsia inaron [2] = test: Insecticidal activity against Encarsia inaron treated at larval stages at 62.5 ppm assessed as insect longevity (reference value: 5.60 days); assay type: functional, Larval stage
Encarsia inaron [3] = test: Insecticidal activity against Encarsia inaron treated at larval stages at 62.5 ppm assessed as insect total fecundity; assay type: functional, organism-based; conditions: Larval stage
Encarsia inaron [4] = test: Insecticidal activity against Encarsia inaron treated at adult stages assessed as mean generation time at 23.37 ppm; assay type: functional, organism-based
Encarsia inaron [5] = test: Insecticidal activity against Encarsia inaron treated at pupal stages assessed as finite rate increase at 62.5 ppm; assay type: functional, organism-based; conditions: Pupal stage
Encarsia inaron [6] = test: Insecticidal activity against Encarsia inaron treated at larval stages assessed as intrinsic rate of increase at 62.5 ppm; assay type: functional, organism-based; conditions: Larval stage
Encarsia inaron [7] = test: Insecticidal activity against Encarsia inaron infested cucumber plants assessed as adult parasitoid emergence from parasitised host nymphs treated at pupae stages at 350 g ai/L SC measured 10 days post compound treatment (reference value: 79.60 %); assay type: functional
Encarsia inaron [8] = test: Insecticidal activity against Encarsia inaron treated at pupal stages assessed as mean generation time at 62.5 ppm; assay type: functional, organism-based; conditions: Pupal stage
Encarsia inaron [9] = test: Insecticidal activity against Encarsia inaron treated at pupal stages at 62.5 ppm assessed as insect total fecundity; assay type: functional, organism-based; conditions: Pupal stage
Encarsia inaron [10] = test: Insecticidal activity against Encarsia inaron treated at adult stages assessed as doubling time at 23.37 ppm; assay type: functional, organism-based
Encarsia inaron [11] = test: Insecticidal activity against Encarsia inaron treated at adult stages at 23.37 ppm assessed as insects eggs level per day (reference value: 2.33 egg/day); assay type: functional
Encarsia inaron [12] = test: Insecticidal activity against Encarsia inaron treated at larval stages assessed as mean generation time at 62.5 ppm; assay type: functional, organism-based; conditions: Larval stage
Encarsia inaron [13] = test: Insecticidal activity against Encarsia inaron treated at larval stages assessed as increase in net reproductive rate at 62.5 ppm; assay type: functional, organism-based; conditions: Larval stage
Encarsia inaron [14] = test: Insecticidal activity against Encarsia inaron treated at pupal stages assessed as intrinsic rate of increase at 62.5 ppm; assay type: functional, organism-based; conditions: Pupal stage
Encarsia inaron [15] = test: Insecticidal activity against Encarsia inaron treated at pupal stages at 62.5 ppm assessed as sex ratio (reference value: 0.68 no unit); assay type: functional, Pupal stage
Encarsia inaron [16] = test: Insecticidal activity against Encarsia inaron infested cucumber plants assessed as adult parasitoid emergence from parasitised host nymphs treated at larval stages at 350 g ai/L SC measured 10 days post compound treatment (reference value: 79.60 %); assay type: functional, Larval stage
Encarsia inaron [17] = test: Insecticidal activity against Encarsia inaron treated at pupal stages assessed as net reproductive rate at 62.5 ppm; assay type: functional, organism-based; conditions: Pupal stage
Encarsia inaron [18] = test: Insecticidal activity against Encarsia inaron treated at adult stages at 23.37 ppm assessed as insect total fecundity; assay type: functional, organism-based
Encarsia inaron [19] = test: Insecticidal activity against Encarsia inaron treated at adult stages assessed as increase in net reproductive rate at 23.37 ppm; assay type: functional, organism-based
Encarsia inaron [20] = test: Insecticidal activity against Encarsia inaron treated at adult stages at 23.37 ppm assessed as insect longevity (reference value: 8.95 days); assay type: functional
Encarsia inaron [21] = test: Insecticidal activity against Encarsia inaron treated at larval stages at 62.5 ppm assessed as sex ratio (reference value: 0.72 no unit); assay type: functional, Larval stage
Encarsia inaron [22] = test: Insecticidal activity against Encarsia inaron treated at pupal stages at 62.5 ppm assessed as insects eggs level per day (reference value: 2.37 egg/day); assay type: functional, Pupal stage
Encarsia inaron [23] = test: Insecticidal activity against Encarsia inaron treated at pupal stages at 62.5 ppm assessed as insect longevity (reference value: 8.7 days); assay type: functional, Pupal stage
Encarsia inaron [24] = test: Insecticidal activity against Encarsia inaron treated at adult stages assessed as intrinsic rate of increase at 23.37 ppm; assay type: functional, organism-based
Encarsia inaron [25] = test: Insecticidal activity against Encarsia inaron treated at adult stages assessed as finite rate of increase at 23.37 ppm; assay type: functional, organism-based
Encarsia inaron [26] = test: Insecticidal activity against Encarsia inaron treated at larval stages assessed as finite rate of increase at 62.5 ppm; assay type: functional, organism-based; conditions: Larval stage
Encarsia inaron [27] = test: Insecticidal activity against Encarsia inaron treated at adult stages at 23.37 ppm assessed as sex ratio (reference value: 0.72 no unit); assay type: functional
Encarsia inaron [28] = test: Insecticidal activity against Encarsia inaron adults reared on compound treated freshly cut cucumber leaves assessed as induction if insect mortality measured 48 hr post compound treatment; assay type: functional
Encarsia inaron [29] = test: Insecticidal activity against Encarsia inaron treated at larval stages at 31.25 ppm assessed as sex ratio (reference value: 0.72 no unit); assay type: functional, Larval stage
Encarsia inaron [30] = test: Insecticidal activity against Encarsia inaron treated at pupal stages at 2000 ppm assessed as insect longevity (reference value: 8.7 days); assay type: functional, Pupal stage
Encarsia inaron [31] = test: Insecticidal activity against Encarsia inaron treated at larval stages assessed as mean generation time at 31.25 ppm; assay type: functional, organism-based; conditions: Larval stage
Encarsia inaron [32] = test: Insecticidal activity against Encarsia inaron treated at pupal stages assessed as intrinsic rate of increase at 2000 ppm; assay type: functional, organism-based; conditions: Pupal stage
Encarsia inaron [33] = test: Insecticidal activity against Encarsia inaron treated at pupal stages at 2000 ppm assessed as insect total fecundity; assay type: functional, organism-based; conditions: Pupal stage
Encarsia inaron [34] = test: Insecticidal activity against Encarsia inaron treated at pupal stages assessed as mean generation time at 2000 ppm; assay type: functional, organism-based; conditions: Pupal stage
Encarsia inaron [35] = test: Insecticidal activity against Encarsia inaron treated at adult stages assessed as increase in net reproductive rate at 2000 ppm; assay type: functional, organism-based
Encarsia inaron [36] = test: Insecticidal activity against Encarsia inaron treated at larval stages at 31.25 ppm assessed as insects eggs level per day (reference value: 2.98 egg/day); assay type: functional, Larval stage
Encarsia inaron [37] = test: Insecticidal activity against Encarsia inaron treated at larval stages at 31.25 ppm assessed as insect longevity (reference value: 5.60 days); assay type: functional, Larval stage
Encarsia inaron [38] = test: Insecticidal activity against Encarsia inaron treated at adult stages at 2000 ppm assessed as insects eggs level per day (reference value: 2.33 egg/day); assay type: functional
Encarsia inaron [39] = test: Insecticidal activity against Encarsia inaron infested cucumber plants assessed as adult parasitoid emergence from parasitised host nymphs treated at larval stages at 400 g ai/L SC measured 10 days post compound treatment (reference value: 79.60 %); assay type: functional, Larval stage
Encarsia inaron [40] = test: Insecticidal activity against Encarsia inaron treated at larval stages assessed as increase in net reproductive rate at 31.25 ppm; assay type: functional, organism-based; conditions: Larval stage
Encarsia inaron [41] = test: Insecticidal activity against Encarsia inaron treated at larval stages at 31.25 ppm assessed as insect total fecundity; assay type: functional, organism-based; conditions: Larval stage
Encarsia inaron [42] = test: Insecticidal activity against Encarsia inaron treated at pupal stages assessed as finite rate increase at 2000 ppm; assay type: functional, organism-based; conditions: Pupal stage
Encarsia inaron [43] = test: Insecticidal activity against Encarsia inaron treated at adult stages assessed as doubling time at 2000 ppm; assay type: functional, organism-based
Encarsia inaron [44] = test: Insecticidal activity against Encarsia inaron treated at adult stages at 2000 ppm assessed as sex ratio (reference value: 0.72 no unit); assay type: functional
Encarsia inaron [45] = test: Insecticidal activity against Encarsia inaron treated at pupal stages at 2000 ppm assessed as sex ratio (reference value: 0.68 no unit); assay type: functional, Pupal stage
Encarsia inaron [46] = test: Insecticidal activity against Encarsia inaron treated at adult stages assessed as intrinsic rate of increase at 2000 ppm; assay type: functional, organism-based
Encarsia inaron [47] = test: Insecticidal activity against Encarsia inaron treated at pupal stages assessed as net reproductive rate at 2000 ppm; assay type: functional, organism-based; conditions: Pupal stage
Encarsia inaron [48] = test: Insecticidal activity against Encarsia inaron infested cucumber plants assessed as adult parasitoid emergence from parasitised host nymphs treated at pupae stages at 400 g ai/L SC measured 10 days post compound treatment (reference value: 79.60 %); assay type: functional
Encarsia inaron [49] = test: Insecticidal activity against Encarsia inaron treated at adult stages at 2000 ppm assessed as insect total fecundity; assay type: functional, organism-based
Encarsia inaron [50] = test: Insecticidal activity against Encarsia inaron treated at pupal stages at 2000 ppm assessed as insects eggs level per day (reference value: 2.37 egg/day); assay type: functional, Pupal stage
Encarsia inaron [51] = test: Insecticidal activity against Encarsia inaron treated at adult stages assessed as mean generation time at 2000 ppm; assay type: functional, organism-based
Encarsia inaron [52] = test: Insecticidal activity against Encarsia inaron treated at adult stages at 2000 ppm assessed as insect longevity (reference value: 8.95 days); assay type: functional
Encarsia inaron [53] = test: Insecticidal activity against Encarsia inaron treated at adult stages assessed as finite rate of increase at 2000 ppm; assay type: functional, organism-based
Encarsia inaron [54] = test: Insecticidal activity against Encarsia inaron treated at larval stages assessed as intrinsic rate of increase at 31.25 ppm; assay type: functional, organism-based; conditions: Larval stage
Encarsia inaron [55] = test: Insecticidal activity against Encarsia inaron treated at larval stages assessed as finite rate of increase at 31.25 ppm; assay type: functional, organism-based; conditions: Larval stage

## O=[N+]([O-])/N=C1\NCCN1Cc1ccc(Cl)nc1 [IMIDACLOPRID]
Encarsia inaron [1]
  Activity: 5.44 day⁻¹
Encarsia inaron [2]
  Time: 13.2 days
Encarsia inaron [3]
  Activity: Active
Encarsia inaron [4]
  Activity: inactive
Encarsia inaron [5]
  Activity: inactive
Encarsia inaron [6]
  Activity: Active
Encarsia inaron [7]
  Activity: 15%
Encarsia inaron [8]
  Activity: Active
Encarsia inaron [9]
  Activity: Active
Encarsia inaron [10]
  Activity: inactive
Encarsia inaron [11]
  Activity: 4.75 day⁻¹
Encarsia inaron [12]
  Activity: Active
Encarsia inaron [13]
  Activity: Active
Encarsia inaron [14]
  Activity: inactive
Encarsia inaron [15]
  Ratio: 0.59
Encarsia inaron [16]
  Activity: 7%
Encarsia inaron [17]
  Activity: Active
Encarsia inaron [18]
  Activity: Active
Encarsia inaron [19]
  Activity: inactive
Encarsia inaron [20]
  Time: 6.85 days
Encarsia inaron [21]
  Ratio: 0.54
Encarsia inaron [22]
  Activity: 2.77 day⁻¹
Encarsia inaron [23]
  Time: 6.7 days
Encarsia inaron [24]
  Activity: inactive
Encarsia inaron [25]
  Activity: inactive
Encarsia inaron [26]
  Activity: Active
Encarsia inaron [27]
  Ratio: 0.52
Encarsia inaron [28]
  LC10: 3.3 ppm
  LC90: 13407 ppm
Encarsia inaron [28]; Encarsia inaron, 48 h
  LC50: 209 µg/mL (≈ 817 µM)

## CC(C)N1C(=O)N(c2ccccc2)CS/C1=N\C(C)(C)C [BUPROFEZIN]
Encarsia inaron [29]
  Ratio: 0.49
Encarsia inaron [30]
  Time: 8.5 days
Encarsia inaron [31]
  Activity: inactive
Encarsia inaron [32]
  Activity: inactive
Encarsia inaron [33]
  Activity: inactive
Encarsia inaron [34]
  Activity: Active
Encarsia inaron [35]
  Activity: inactive
Encarsia inaron [36]
  Activity: 3.55 day⁻¹
Encarsia inaron [37]
  Time: 7.05 days
Encarsia inaron [38]
  Activity: 4.58 day⁻¹
Encarsia inaron [39]
  Activity: 2.6%
Encarsia inaron [40]
  Activity: inactive
Encarsia inaron [41]
  Activity: inactive
Encarsia inaron [42]
  Activity: inactive
Encarsia inaron [43]
  Activity: inactive
Encarsia inaron [44]
  Ratio: 0.44
Encarsia inaron [45]
  Ratio: 0.44
Encarsia inaron [46]
  Activity: inactive
Encarsia inaron [47]
  Activity: Active
Encarsia inaron [48]
  Activity: 63.4%
Encarsia inaron [49]
  Activity: inactive
Encarsia inaron [50]
  Activity: 1.24 day⁻¹
Encarsia inaron [51]
  Activity: inactive
Encarsia inaron [52]
  Time: 8.9 days
Encarsia inaron [53]
  Activity: inactive
Encarsia inaron [54]
  Activity: inactive
Encarsia inaron [55]
  Activity: inactive
Encarsia inaron [28]
  LC50: inactive
